One experiment has as its target P97 (Homo sapiens, UniProt P55072). Nature of the experiment: P97 Biomolgreen ATPase assay, 200 μM ATP. It is filed as biochemical. The source says:
The following Table IV provides relevant results. The compound number in Table IV correlates to the numbered compounds in Table III.

A further experiment relates to HCT116. Nature of the experiment: Anti-proliferative activity, HCT116. Conditions: Homo sapiens, HCT-116, Colon, read-out: Anti-proliferative activity (μM) of NMS-873. It is filed as cell-based.
In another experiment the test system is SKMel5 (BRAFV600E). Nature of the experiment: Anti-proliferative activity, SKMel5. It is filed as cell-based. Conditions: Homo sapiens, SK-MEL-5, skin cancer, read-out: Anti-proliferative activity (μM) of NMS-873.
For the next experiment, the system named is HCT15. Put plainly: Anti-proliferative activity, HCT15. The following applies: Homo sapiens, HCT-15, Colon, read-out: Anti-proliferative activity (μM) of NMS-873. It counts as cell-based.
Another experiment deals with MDA-MB-231. Put plainly: Anti-proliferative activity, MDA-MB-231. It counts as cell-based. The following applies: Homo sapiens, Breast, read-out: Anti-proliferative activity (μM) of NMS-873.
The next experiment relates to MDA-MB-468. Nature of the experiment: Anti-proliferative activity, MDA-MB-468. It counts as cell-based. The following applies: Homo sapiens, Breast, read-out: Anti-proliferative activity (μM) of NMS-873.
A further experiment relates to CCRF-CEM. Nature of the experiment: Anti-proliferative activity, CCRF-CEM. It counts as cell-based. Conditions: Homo sapiens, blood cancer, read-out: Anti-proliferative activity (μM) of NMS-873.
In a further experiment the test system is SKMel2 (NRASQ61R). Nature of the experiment: Anti-proliferative activity, SKMel2. It is filed as cell-based. Conditions: Homo sapiens, SK-MEL-2, skin cancer, read-out: Anti-proliferative activity (μM) of NMS-873.
In a further experiment the test system is MCF-7. Nature of the experiment: Anti-proliferative activity, MCF-7. It is filed as cell-based. Conditions: Homo sapiens, MCF7, Breast, read-out: Anti-proliferative activity (μM) of NMS-873.
The next experiment has as its system A375 (BRAFV600E). Nature of the experiment: Anti-proliferative activity, A375. Conditions: Homo sapiens, A-375, skin cancer, read-out: Anti-proliferative activity (μM) of NMS-873. It is filed as cell-based.
In a further experiment the test system is Molt4. Put plainly: Anti-proliferative activity, Molt4. It is filed as cell-based. Conditions: Homo sapiens, MOLT-4, blood cancer, read-out: Anti-proliferative activity (μM) of NMS-873.
A further experiment has as its system A549. Nature of the experiment: Anti-proliferative activity, A549. It counts as cell-based. Conditions: Homo sapiens, Lung Cancer, read-out: Anti-proliferative activity (μM) of NMS-873.
The test system of the next experiment is RPMI8226. Nature of the experiment: Anti-proliferative activity, RPMI8226. The following applies: Homo sapiens, RPMI-8226, Multiple Myeloma, read-out: Anti-proliferative activity (μM) of NMS-873. It counts as cell-based.
The next experiment has as its system WM3918 (BRAF/NRAS WT). Nature of the experiment: Anti-proliferative activity, WM3918. It counts as cell-based. Conditions: skin cancer, read-out: Anti-proliferative activity (μM) of NMS-873.
In another experiment the test system is PANC-1. Nature of the experiment: Anti-proliferative activity, PANC-1. It is filed as cell-based. Conditions: Homo sapiens, Pancreatic cancers, read-out: Anti-proliferative activity (μM) of NMS-873.
The subject of another experiment is BxPC-3. Put plainly: Anti-proliferative activity, BxPC-3. It counts as cell-based. Conditions: Homo sapiens, Pancreatic cancers, read-out: Anti-proliferative activity (μM) of NMS-873.
The next experiment concerns SW620. Nature of the experiment: Anti-proliferative activity, SW620. It is filed as cell-based. The following applies: Homo sapiens, SW-620, Colon, read-out: Anti-proliferative activity (μM) of NMS-873.
The test system of a further experiment is LoxIMVI (BRAFV600E). Nature of the experiment: Anti-proliferative activity, LoxIMVI. It counts as cell-based. Conditions: Homo sapiens, LOX IMVI, skin cancer, read-out: Anti-proliferative activity (μM) of NMS-873.
Setting [1] is: read-out: P97 Biomolgreen, IC50.

SMILES strings stand for the structures. Like-named read-outs stand apart in the source and are kept apart here.

Sequence of P97 (P55072 whole entry): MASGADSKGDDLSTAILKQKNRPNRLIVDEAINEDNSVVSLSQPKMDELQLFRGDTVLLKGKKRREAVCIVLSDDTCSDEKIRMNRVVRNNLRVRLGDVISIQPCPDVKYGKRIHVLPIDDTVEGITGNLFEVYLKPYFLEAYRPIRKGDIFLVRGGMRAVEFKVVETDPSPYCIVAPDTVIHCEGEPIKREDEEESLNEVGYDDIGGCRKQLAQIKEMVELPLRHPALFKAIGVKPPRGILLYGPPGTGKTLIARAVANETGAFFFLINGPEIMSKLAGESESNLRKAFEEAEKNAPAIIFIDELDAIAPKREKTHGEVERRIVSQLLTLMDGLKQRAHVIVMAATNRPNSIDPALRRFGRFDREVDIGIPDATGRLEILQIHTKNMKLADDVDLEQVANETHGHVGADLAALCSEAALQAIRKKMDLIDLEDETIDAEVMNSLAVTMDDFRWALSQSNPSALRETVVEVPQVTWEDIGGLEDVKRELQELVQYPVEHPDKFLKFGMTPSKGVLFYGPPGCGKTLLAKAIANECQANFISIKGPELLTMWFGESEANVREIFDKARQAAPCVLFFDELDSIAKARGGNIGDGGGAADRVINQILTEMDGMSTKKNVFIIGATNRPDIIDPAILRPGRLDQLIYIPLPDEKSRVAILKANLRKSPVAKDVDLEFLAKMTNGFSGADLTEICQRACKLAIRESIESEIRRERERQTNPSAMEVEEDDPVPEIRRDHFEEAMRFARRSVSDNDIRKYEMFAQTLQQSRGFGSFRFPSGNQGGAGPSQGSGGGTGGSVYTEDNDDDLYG
Method for A549: (§1) Cells were seeded on a 384-well solid white plate (5,000 cells/well). Cells were transfected with luciferase siRNA or p97 siRNA (10 nM) for 48 h or treated with compounds for the indicated amount of time. Caspase-3/7 Glo, caspase-6 Glo, caspase-8 Glo, or caspase-9 Glo (Promega) was added into each well and mixed by shaking at 500 rpm for 1 min. Luminescence signal was determined after incubation at room temperature for 1 h. Cellular viability was determined with Cell-Titer-Glo reagent (Promega). […] IC50 values were calculated from fitting the percentage of luminescence signal normalized to DMSO treated cells).
Method for BxPC-3: as §1
Method for HCT116: (§2) Cells were seeded on a 384-well solid white plate (5,000 cells/well). Cells were transfected with luciferase siRNA or p97 siRNA (10 nM) for 48 h or treated with compounds for the indicated amount of time. […] Cellular viability was determined with Cell-Titer-Glo reagent (Promega). […] IC50 values were calculated from fitting the percentage of luminescence signal normalized to DMSO treated cells).
Method for HCT15: as §2
Method for LoxIMVI (BRAFV600E): as §1
Method for MCF-7: as §2
Method for MDA-MB-231: as §2
Method for MDA-MB-468: as §2
Method for PANC-1: as §1
Method for SKMel2 (NRASQ61R): as §1
Method for SKMel5 (BRAFV600E): as §1
Method for WM3918 (BRAF/NRAS WT): as §1

Regarding `[2H]C1([2H])C([2H])([2H])C([2H])([2H])C([2H])(Sc2nnc(COc3ccc(C#CC(C)OC(=O)NCCN4CCN(C(C)C)CC4)c(C)c3)n2-c2cccnc2)C1([2H])[2H]` (stereo not shown) [Compound 42], on P97, the IC50 was 130 nM.
Still for that read-out and setting: next, `Cc1cc(OCc2nnc(SC3C=CCCC3)n2-c2cccnc2)ccc1C#CCOC(=O)NCCN1CCN(C(C)C)CC1` (stereo not shown) [Compound 71]: 26 nM.
On the same count and under the same terms, with `Cc1cc(OCc2nnc(SC3CCCC3)n2-c2cccnc2)ccc1C#CCNC(=O)OC(C)(C)C` [Compound 49] the figure was 260 nM.
As to `CCC(=O)NCC#Cc1ccc(OCc2nnc(SCC3CO3)n2-c2cccnc2)cc1C` (stereo not shown) [Compound 129], the “P97 Biomolgreen; 200 μM ATP; IC50 (μM)” value on P97 is on record as “Not active”.
`Cc1cc(OCc2nnc(SC3C=CCCC3)n2-c2cccnc2)ccc1C#CCOC(=O)N1CCN(C)CC1` (stereo not shown) [Compound 108]: the IC50 at P97 was 15 nM.
`Cc1cc(OCc2nnc(SC3CCCC3)n2-c2cccnc2)ccc1-c1ccc(S(C)(=O)=O)cc1` [NMS-873]: the IC50 with HCT116 turned out to be 1.2 µM; with SKMel5 (BRAFV600E) it was 1.95 µM; with HCT15, 2.1 µM; in the experiment on MDA-MB-231, 2.95 µM; in the experiment with MDA-MB-468 it was 1.36 µM; in the experiment with CCRF-CEM, 0.1 µM. Besides, the IC50 worked out at 3.04 µM with SKMel2 (NRASQ61R); 3.07 µM in the experiment with MCF-7; 2.27 µM with A375 (BRAFV600E); 0.92 µM with Molt4; 2.2 µM with A549; 0.08 µM in the experiment on RPMI8226. The IC50 was 2.35 µM with WM3918 (BRAF/NRAS WT); 5 µM with PANC-1; 2.5 µM with BxPC-3; 2.6 µM in the experiment on SW620; 0.65 µM with LoxIMVI (BRAFV600E).
For the molecule `COC(C)NCC#Cc1ccc(OCc2nnc(SC3CCCC3)n2-c2cccnc2)cc1C` (stereo not shown) [Compound 12], the IC50 at P97 is 29 nM.
As for `OCC#Cc1ccc(OCc2nnc(SC3C=CCCC3)n2-c2cccnc2)cc1` (stereo not shown) [Compound 91], the IC50 on P97 (setting [1]) turned out to be 32 nM.
On P97, `[2H]C1([2H])C([2H])([2H])C([2H])([2H])C([2H])(Sc2nnc(COc3ccc(C#CCO)c(C)c3)n2-c2cccnc2)C1([2H])[2H]` [Compound 117] returned an IC50 of 990 nM.
Still for that read-out and setting: with `[2H]C1([2H])C([2H])([2H])C([2H])([2H])C([2H])(Sc2nnc(COc3ccc(C#CCNC4CCN(C)CC4)c(C)c3)n2-c2cccnc2)C1([2H])[2H]` [Compound 96] the figure was 67 nM.
On to `CN1CCC(NC(=O)OCC#Cc2ccc(OCc3nnc(SC4C=CCCC4)n3-c3cccnc3)cc2C#N)CC1` (stereo not shown) [Compound 121], for which the IC50 at P97 (setting [1]) came to 30 nM.
Consider `Cc1cc(OCc2nnc(SC3CCCC3)n2-c2cccnc2)ccc1C#CCOC(=O)NCCOCCNC(=O)CC1C2CC3CC(C2)CC1C3` (stereo not shown) [Compound 111], for which the IC50 against P97 was 30 nM.
As for `C#Cc1ccc(OCc2nnc(CC3CC3)n2-c2cccnc2)cc1C` [Compound 55], at P97 (setting [1]), the IC50 amounted to 5300 nM.
In turn, `Cc1cc(OCc2nnc(SC3CCCC3)n2-c2cccnc2)ccc1C#CCOC(=O)NCCNC(=O)CC1C2CC3CC(C2)CC1C3` (stereo not shown) [Compound 110] had an IC50 against P97 of 60 nM.
With `Cc1cc(OCc2nnc(SC3C=CCCC3)n2-c2cccnc2)ccc1C#CCOC1CCCCO1` (stereo not shown) [Compound 57], the IC50 at P97 (setting [1]) is 110 nM.
Turning to `CCC(=O)NCC#Cc1ccc(OCc2nnc(SC[C@@]3(C)CO3)n2-c2cccnc2)cc1C` [Compound 130], at P97, the “P97 Biomolgreen; 200 μM ATP; IC50 (μM)” value is given as “Not active”.
Molecule `N#Cc1ccc(C#CCOCc2nnc(SC3CCCC3)n2-c2cccnc2)cc1` [Compound 56] gave an IC50 against P97 greater than 6700 nM.
For the molecule `Cc1cc(OCc2nnc(SC3C=CCCC3)n2-c2cccnc2)ccc1C#CCOC(=O)NC1CCN(C)CC1` (stereo not shown) [Compound 75], the IC50 against P97 came out at 25 nM.

(Values after patent US20220175754A1, “P97 INHIBITORS FOR TREATING CANCER AND NEURODEGENERATIVE DISORDERS” (Lundquist Institute for Biomedical Innovation at …, priority 2018, published 2022).)
